Reference: US9221827B2, “Antimicrobial compounds and methods of making and using the same” (Melinta Therapeutics, Inc., priority 2011, dated 2015)

Tested on: Escherichia coli strain ATCC25922
Assay: standard microdilution assay to determine minimum inhibitory concentrations (MICs)
Format: cell-based
Description: The in vitro activity of the compounds of the present invention can be determined. Antimicrobial testing is typically performed to determine the minimum inhibitory concentration (MIC). Minimum inhibitory concentrations (MICs) are determined by the microdilution method in a final volume of 100 μl according to protocols outlined by The Clinical and Laboratory Standards Institute (CLSI). Performance standards for reference strains are assessed within the same experimental design to maintain quality control. See, for example, Clinical Laboratory Standards Institute: Methods for dilution antimicrobial susceptibility tests for bacteria that grow aerobically M7-A8. Approved Standard-Eighth Edition. Wayne, Pa.: CLSI; December 2008; and Clinical Laboratory Standards Institute: Performance Standards for Antimicrobial Susceptibility Testing M100-S20; Approved Standard-Twentieth Edition. Wayne, Pa.: CLSI; June 2010.
The compounds of the present invention were tested for antimicrobial activity. […] The compounds were run against Escherichia coli strain ATCC25922 using a standard microdilution assay to determine minimum inhibitory concentrations (MICs). […] A “N/A” means that data is unavailable. It will be recognized by one skilled in the art that the compounds can be assessed against other bacterial organisms and that the presentation of data for activity against Escherichia coli is illustrative and in no way is intended to limit the scope of the present invention. The compounds of the present invention can be assayed against a range of other microorganisms depending upon the performance activity desired to be gathered. Furthermore, the “+”, “−”, and “N/A” representation and the selection of a cutoff value of 16 micrograms/ml is also illustrative and in no way is intended to limit the scope of the present invention.

[1] = Escherichia coli strain ATCC25922, standard microdilution assay
[2] = Escherichia coli strain ATCC25922, microdilution

| Compound | E. coli ATCC25922 MIC [1] | E. coli ATCC25922 MIC [2] |
| --- | --- | --- |
| CC(N)COCc1cc(Cl)c(F)c(-c2cc3cn(-c4ccc(C(C)NCCCNC(=N)N)cc4)c(=O)nc3[nH]2)c1 (centres unmarked) [Compound 376] | + (a “+” indicates that the compound has an MIC value of 16 micrograms/ml or less) |  |
| CS(=O)(=O)Nc1cc(CCCCN)cc(-c2cc3cn(-c4ccc(CNCCCNC(=N)N)cc4)c(=O)nc3[nH]2)c1 [Compound 48] |  | + (a “+” indicates that the compound has an MIC value of 16 micrograms/ml or less) |
| CC(N)CCCc1cc(OC(F)(F)F)c(Cl)c(-c2cc3cn(-c4ccc(C(C)NCCCNC(=N)N)cc4)c(=O)nc3[nH]2)c1 (centres unmarked) [Compound 282] |  | + (a “+” indicates that the compound has an MIC value of 16 micrograms/ml or less) |
| N=C(N)NCCCNCc1ccc(-n2cc3cc(-c4cc(CCCO)cc(OC(F)(F)F)c4)[nH]c3nc2=O)cc1 [Compound 60] |  | − (a “−” indicates that the compound has an MIC value greater than 16 micrograms/ml) |
| CC(N)COCc1cc(SC(F)(F)F)cc(-c2cc3cn(-c4ccc(C(C)NCCCNC(=N)N)cc4)c(=O)nc3[nH]2)c1 (centres unmarked) [Compound 345] | + (a “+” indicates that the compound has an MIC value of 16 micrograms/ml or less) |  |
| COC(=O)CC(NCCCNC(=N)N)c1ccc(-n2cc3cc(-c4cc(CCCC(C)N)cc(C(F)(F)F)c4)[nH]c3nc2=O)cc1 (centres unmarked) [Compound 488] |  | + (a “+” indicates that the compound has an MIC value of 16 micrograms/ml or less) |
| C=C(CCCN)c1cc(OC(F)(F)F)cc(-c2cc3cn(-c4ccc(CNCCCNC(=N)N)cc4)c(=O)nc3[nH]2)c1 [Compound 95] |  | + (a “+” indicates that the compound has an MIC value of 16 micrograms/ml or less) |
| NC(N)=NCCCNCc1ccc(-n2cc3cc(-c4cc(CCCO)ccc4Cl)[nH]c3nc2=O)cc1 [Compound 82] |  | + (a “+” indicates that the compound has an MIC value of 16 micrograms/ml or less) |
| C[C@H](N)CCCc1cc(-c2cc3cn(-c4ccc([C@H](C)NCCCNC(=N)N)cc4)c(=O)nc3[nH]2)cc2c1CCCC2 [Compound 417] | + (a “+” indicates that the compound has an MIC value of 16 micrograms/ml or less) |  |
| C[C@H](N)CCCc1cc(SC(F)(F)F)c(Cl)c(-c2cc3cn(-c4ccc([C@@H](C)N)cc4)c(=O)nc3[nH]2)c1 [Compound 409] | − (a “−” indicates that the compound has an MIC value greater than 16 micrograms/ml) |  |
| C=CC(NCCCNC(=N)N)c1ccc(-n2cc3cc(-c4cc(CCCC(C)N)cc(C(F)(F)F)c4)[nH]c3nc2=O)cc1 (centres unmarked) [Compound 501] |  | + (a “+” indicates that the compound has an MIC value of 16 micrograms/ml or less) |
| CC(N)CCCc1cc(-c2cc3cn(-c4ccc(CNCCCNC(=N)N)cc4)c(=O)nc3[nH]2)c(F)c(C(F)(F)F)c1 (centres unmarked) [Compound 275] |  | + (a “+” indicates that the compound has an MIC value of 16 micrograms/ml or less) |
| CC(N)CCCc1cc(OC(F)(F)F)c(F)c(-c2cc3cn(-c4ccc(CNCCCNC(=N)N)cc4)c(=O)nc3[nH]2)c1 (centres unmarked) [Compound 286] |  | + (a “+” indicates that the compound has an MIC value of 16 micrograms/ml or less) |
| CN=C(N)NCCCNCc1ccc(-n2cc3cc(-c4cc(CCCC(C)N)cc(Cl)c4F)[nH]c3nc2=O)cc1 (centres unmarked) [Compound 382] | + (a “+” indicates that the compound has an MIC value of 16 micrograms/ml or less) |  |
| CC(CN)Cc1cc(OC(F)(F)F)cc(-c2cc3cn(-c4ccc(CNCCCNC(=N)N)cc4)c(=O)nc3[nH]2)c1 (centres unmarked) [Compound 241] |  | + (a “+” indicates that the compound has an MIC value of 16 micrograms/ml or less) |
| C[C@H](N)CCCc1cc(F)c(F)c(-c2cc3cn(-c4ccc(CNCCCNC(=N)N)cc4)c(=O)nc3[nH]2)c1 [Compound 463] | + (a “+” indicates that the compound has an MIC value of 16 micrograms/ml or less) |  |
| C[C@H](NCCCNC(=N)N)c1ccc(-n2cc3cc(-c4cc(CCC5(CN)CC5)cc(Cl)c4F)[nH]c3nc2=O)cc1 [Compound 320] |  | + (a “+” indicates that the compound has an MIC value of 16 micrograms/ml or less) |
